Values quoted from earlier work, collected in US11155746B2, “Compositions and methods for reducing hydrogen sulfide and microbial influenced corrosion in crude oil, natural gas, and in associated equipment” (priority 2017, dated 2021).

Conditions: atmospheric exposure

In the case of `S` [H2S, hydrogen sulfide], the “exposure concentration that can be rapidly fatal” value is listed as “above 600 ppm” and the “exposure concentration that can cause damage to internal organs” value is listed as “above 100 ppm”.
